Measured values as given in US9187507B2 (Institute of Pharmacology and Toxicology Academy of …, priority 2009, dated 2015).
Read-outs that look alike come from different tables or passages of the source.

Legend:
HBV DNA = assay: Test of in vitro activity against HBV: inhibition of HBV DNA in Hep G 2.2.15 cells by quantitative real-time fluorescent PCR; type: cell-based; details: Hepatitis B virus, HepG2.2.15
Method: By an in vitro test method of using Hep G 2.2.15 cells, the inhibition effects and cytotoxicity of the desired compounds to HBV DNA were measured.
By using quantitative and real-time fluorescent PCR method, the inhibition effects of the desired compounds to HBV DNA were measured: Hep G 2.2.15 cells were cultured in a DMEM culture medium containing 10% bovine calf serum, incubated in a 5% CO2 incubator, then the cells were inoculated in 96-well plate, cell count 3×10^4, continuously cultured, when the cell density reached about 80%, the used culture medium was discarded, and new culture media with different drug concentrations were added, in which 3 parallel wells were set; the culture media were exchanged every three days. On the 10th day of using drug, 100 μl of supernatant was taken and measured to determine HBV DNA content by quantitative PCR method, calculate 50% inhibition concentration, i.e., IC50 value.

[1] = Cytotoxicity by MTT method; type: cell-based; details: human; Hep G2 cells; MTT on the 3rd day of adding drugs; absorption at 540 nm
Method: The cytotoxicity of the desired compounds were measured by MTT method: Hep G2 cells were cultured in a DMEM culture medium containing 10% bovine calf serum, incubated in a 5% CO2 incubator, then the cells were inoculated in 96-well plate, cell count 5×10^4, continuously cultured for 3 days, added with new culture media with different drug concentrations, in which 3 parallel wells were set; on the 3rd day of adding drugs, MTT was added to 7.5 mg/ml, the culture was kept for further 2 h, the supernatant was discarded, isopropanol containing 10% […] was added, 120 μl/well, then added 0.4 μl/well again, enzyme-linked meter was used to measure the absorption at 540 nm, calculate 50% inhibition concentration, i.e., CC50 value.

hepatitis B virus = details: clinical; cited from earlier work
[2] = human body, after MCC-478; cited from earlier work
HBV = details: anti-HBV, cited from earlier work
[3] = test system: HBV strains with resistance to lamivudine; details: cited from earlier work
[4] = test system: other retro viruses such as HIV and HSV; details: cited from earlier work

Row | Compound | IC50 (HBV DNA) | CC50 at 3 days [1] | further results
1 | COc1ccc(Sc2nc(N)nc3c2ncn3CCOCP(=O)(OCOC(=O)C(C)C)OCOC(=O)C(C)C)cc1 [Compound I2] | 0.02 µM | > 1000 µM | –
2 | COc1ccc(Sc2nc(N)nc3c2ncn3CCOCP(=O)(OCOC(=O)OCC(C)C)OCOC(=O)OCC(C)C)cc1 [Compound I9] | 0.021 µM | > 1000 µM | –
3 | COc1ccc(Sc2nc(N)nc3c2ncn3CCOCP(=O)(OCOC(=O)OC2CCCCC2)OCOC(=O)OC2CCCCC2)cc1 [Compound I12] | 0.011 µM | > 1000 µM | –
4 | COc1ccc(Sc2nc(N)nc3c2ncn3CCOCP(=O)(OCOC(=O)OC(C)C)OCOC(=O)OC(C)C)cc1 [Compound I8] | 0.005 µM | > 1000 µM | –
5 | COc1ccc(Sc2nc(N)nc3c2ncn3C[C@@H](C)OCP(=O)(OCOC(=O)C(C)(C)C)OCOC(=O)C(C)(C)C)cc1 [Compound I5] | 0.006 µM | > 1000 µM | –
6 | COc1ccc(Sc2nc(N)nc3c2ncn3CCOCP(=O)(OCOC(=O)C(C)(C)C)OCOC(=O)C(C)(C)C)cc1 [Compound I3] | 0.015 µM | > 1000 µM | –
7 | COc1ccc(Sc2nc(N)nc3c2ncn3C[C@@H](C)OCP(=O)(OCOC(=O)OC(C)C)OCOC(=O)OC(C)C)cc1 [Compound I13] | 0.054 µM | > 1000 µM | –
8 | interferon | – | – | effective rate of treatment (hepatitis B virus): 30-50%
9 | COc1ccc(Sc2nc(N)nc3c2ncn3CCOCP(=O)(O)O)cc1 [Compound 602076, 2-amino-6-(4-methoxyphenylthio)-9-(2-phosphonomethoxyethyl)-purine] | – | – | concentration of the free acid 602076 in blood relative to that of the monoester 602074 [2]: 1/10
10 | COc1ccc(Sc2nc(N)nc3c2ncn3CCOCP(=O)(OCOC(=O)C2CCCCC2)OCOC(=O)C2CCCCC2)cc1 [Compound I4] | 0.012 µM | > 1000 µM | –
11 | COc1ccc(Sc2nc(N)nc3c2ncn3CCOCP(=O)(OCC(F)(F)F)OCC(F)(F)F)cc1 [MCC-478] | – | > 1000 µM | in vitro activity, times that of adefovir (HBV; relative to adefovir): 10-20 times; in vitro activity, times that of lamivudine (HBV; relative to lamivudine): 20-80 times; inhibition effects on HBV strains with resistance to lamivudine [3]: has inhibition effects; activity against other retro viruses such as HIV and HSV [4]: no activity; IC50 (HBV DNA; Hep G 2.2.15 cells, HBV DNA content in supernatant by quantitative PCR on the 10th day of using drug, read-out: IC50): 0.016 µM
